Reference: ChEMBL document CHEMBL3885881, “DrugMatrix”

Species on record: Rattus norvegicus
Test: DrugMatrix - Regimen: Daily Repeat
Assay type: toxicity, organism-based, Sprague-Dawley
Design: regimen Daily Repeat, gender Male, age 6-8 weeks
Conditions: in vivo, iv, vehicle 100 % SALINE; for ABSOLUTE BASOPHIL / ABSOLUTE EOSINOPHIL / ABSOLUTE LYMPHOCYTE / ABSOLUTE MONOCYTE / ABSOLUTE SEGMENTED NEUTROPHIL / BASOPHIL / EOSINOPHIL / ERYTHROCYTE COUNT / HEMATOCRIT / HEMOGLOBIN / LEUKOCYTE COUNT / LYMPHOCYTE / MEAN CORPUSCULAR HEMOGLOBIN / MEAN CORPUSCULAR HEMOGLOBIN CONCENTRATION / MEAN CORPUSCULAR VOLUME / MONOCYTE / NEUTROPHIL / NUCLEATED RED BLOOD CELLS / PLATELET COUNT: tissue Blood; for ALANINE AMINOTRANSFERASE / ALBUMIN / ALKALINE PHOSPHATASE / ASPARTATE AMINOTRANSFERASE / BLOOD UREA NITROGEN / CARBON DIOXIDE / CHLORIDE / CHOLESTEROL / CREATINE PHOSPHOKINASE / CREATININE / GLUCOSE / LACTATE DEHYDROGENASE / LIPASE / PHOSPHORUS / POTASSIUM / SODIUM / TOTAL BILIRUBIN / TOTAL PROTEIN / URIC ACID: tissue Plasma
[1] = 10 mg/kg, 120 h, dose level Low, time 5 day
[2] = 350 mg/kg, 72 h, dose level High, time 3 day
[3] = 350 mg/kg, 120 h, dose level High, time 5 day

## O=C(O)P(=O)(O)O [FOSCARNET]
[1]
  ABSOLUTE BASOPHIL: 0 CELLS/uL
  ABSOLUTE EOSINOPHIL: 341 CELLS/uL
  ABSOLUTE LYMPHOCYTE: 13776.67 CELLS/uL
  ABSOLUTE MONOCYTE: 353.33 CELLS/uL
  ABSOLUTE SEGMENTED NEUTROPHIL: 929 CELLS/uL
  BASOPHIL: 0%
  EOSINOPHIL: 2%
  ERYTHROCYTE COUNT: 5.8 x10E6/uL
  HEMATOCRIT: 36.87%
  HEMOGLOBIN: 13.6 G/DL
  LEUKOCYTE COUNT: 15.4 x10E3/uL
  LYMPHOCYTE: 89.67%
  MEAN CORPUSCULAR HEMOGLOBIN: 23.47 pg
  MEAN CORPUSCULAR HEMOGLOBIN CONCENTRATION: 36.93 G/DL
  MEAN CORPUSCULAR VOLUME: 63.6 fL
  MONOCYTE: 2.33%
  NEUTROPHIL: 6%
  NUCLEATED RED BLOOD CELLS: 0 /100WBC
  PLATELET COUNT: 1343 x10E3/uL
  ALANINE AMINOTRANSFERASE: 47.67 u/L
  ALBUMIN: 4.3 G/DL
  ALKALINE PHOSPHATASE: 297.67 u/L
  ASPARTATE AMINOTRANSFERASE: 89 u/L
  BLOOD UREA NITROGEN: 17.67 mg/dL
  CARBON DIOXIDE: 23.67 mmol/L
  CHLORIDE: 105 MEQ/L
  CHOLESTEROL: 61.33 mg/dL
  CREATINE PHOSPHOKINASE: 1049.33 u/L
  CREATININE: 0.22 mg/dL
  GLUCOSE: 193.67 mg/dL
  LACTATE DEHYDROGENASE: 149 u/L
  LIPASE: 8 u/L
  PHOSPHORUS: 11.77 mg/dL
  POTASSIUM: 5.32 MEQ/L
  SODIUM: 145.43 MEQ/L
  TOTAL BILIRUBIN: 0.23 mg/dL
  TOTAL PROTEIN: 5.93 G/DL
  URIC ACID: 1.67 mg/dL
[2]
  ABSOLUTE BASOPHIL: 0 CELLS/uL
  ABSOLUTE EOSINOPHIL: 0 CELLS/uL
  ABSOLUTE LYMPHOCYTE: 12652 CELLS/uL
  ABSOLUTE MONOCYTE: 325.67 CELLS/uL
  ABSOLUTE SEGMENTED NEUTROPHIL: 1422.33 CELLS/uL
  BASOPHIL: 0%
  EOSINOPHIL: 0%
  ERYTHROCYTE COUNT: 5.36 x10E6/uL
  HEMATOCRIT: 33.47%
  HEMOGLOBIN: 12.6 G/DL
  LEUKOCYTE COUNT: 14.4 x10E3/uL
  LYMPHOCYTE: 88%
  MEAN CORPUSCULAR HEMOGLOBIN: 23.57 pg
  MEAN CORPUSCULAR HEMOGLOBIN CONCENTRATION: 37.67 G/DL
  MEAN CORPUSCULAR VOLUME: 62.47 fL
  MONOCYTE: 2.33%
  NEUTROPHIL: 9.67%
  NUCLEATED RED BLOOD CELLS: 0 /100WBC
  PLATELET COUNT: 1373.67 x10E3/uL
  ALANINE AMINOTRANSFERASE: 45 u/L
  ALBUMIN: 4.13 G/DL
  ALKALINE PHOSPHATASE: 377 u/L
  ASPARTATE AMINOTRANSFERASE: 95.33 u/L
  BLOOD UREA NITROGEN: 15.67 mg/dL
  CARBON DIOXIDE: 26 mmol/L
  CHLORIDE: 102.67 MEQ/L
  CHOLESTEROL: 71 mg/dL
  CREATINE PHOSPHOKINASE: 483.67 u/L
  CREATININE: 0.18 mg/dL
  GLUCOSE: 145.33 mg/dL
  LACTATE DEHYDROGENASE: 795 u/L
  LIPASE: 8.33 u/L
  PHOSPHORUS: 9.37 mg/dL
  POTASSIUM: 6.24 MEQ/L
  SODIUM: 142.23 MEQ/L
  TOTAL BILIRUBIN: 0.2 mg/dL
  TOTAL PROTEIN: 5.57 G/DL
  URIC ACID: 1.27 mg/dL
[3]
  ABSOLUTE BASOPHIL: 0 CELLS/uL
  ABSOLUTE EOSINOPHIL: 0 CELLS/uL
  ABSOLUTE LYMPHOCYTE: 12914 CELLS/uL
  ABSOLUTE MONOCYTE: 384.67 CELLS/uL
  ABSOLUTE SEGMENTED NEUTROPHIL: 1034.67 CELLS/uL
  BASOPHIL: 0%
  EOSINOPHIL: 0%
  ERYTHROCYTE COUNT: 5.17 x10E6/uL
  HEMATOCRIT: 33.93%
  HEMOGLOBIN: 13.03 G/DL
  LEUKOCYTE COUNT: 14.33 x10E3/uL
  LYMPHOCYTE: 90.33%
  MEAN CORPUSCULAR HEMOGLOBIN: 25.2 pg
  MEAN CORPUSCULAR HEMOGLOBIN CONCENTRATION: 38.4 G/DL
  MEAN CORPUSCULAR VOLUME: 65.67 fL
  MONOCYTE: 2.67%
  NEUTROPHIL: 7%
  NUCLEATED RED BLOOD CELLS: 0 /100WBC
  PLATELET COUNT: 1324.67 x10E3/uL
  ALANINE AMINOTRANSFERASE: 45 u/L
  ALBUMIN: 4.13 G/DL
  ALKALINE PHOSPHATASE: 385.67 u/L
  ASPARTATE AMINOTRANSFERASE: 74.67 u/L
  BLOOD UREA NITROGEN: 19 mg/dL
  CARBON DIOXIDE: 28.67 mmol/L
  CHLORIDE: 103.67 MEQ/L
  CHOLESTEROL: 69.33 mg/dL
  CREATINE PHOSPHOKINASE: 209.67 u/L
  CREATININE: 0.22 mg/dL
  GLUCOSE: 170 mg/dL
  LACTATE DEHYDROGENASE: 103.33 u/L
  LIPASE: 9 u/L
  PHOSPHORUS: 10.83 mg/dL
  POTASSIUM: 6.68 MEQ/L
  SODIUM: 143.67 MEQ/L
  TOTAL BILIRUBIN: 0.23 mg/dL
  TOTAL PROTEIN: 5.9 G/DL
  URIC ACID: 1.53 mg/dL
